# Results reported in patent US20180369244A1, “BTK Inhibitors to Treat Solid Tumors Through Modulation of the Tumor Microenvironment” (Acerta Pharma B.V., priority 2014, published 2018).
# pEC50, pIC50: −log10 of the molar value.
# Key:
# EGFR = assay: EGF-induced EGFR phosphorylation in A431 cells (phosphoflow); format: cell-based, human
# Experimental: Phosphoflow cytometry was performed with p-EGFR (Y1069). MFI values were normalized so that 100% represents the p-EGFR level in stimulated cells without inhibitor, while 0% represents the unstimulated/no drug condition.
# NSCLC (KrasLA2) = assay: KrasLA2 genetic NSCLC model; format: in vivo, mice
# From the text: The model is designed to have sporadic expression in single cells of G12D mutant Kras off its own promoter triggered by spontaneous intrachromosomal recombination. Johnson, et al. Nature 2001, 410, 1111-16. While the mutant Kras protein is expressed in a few cells in all tissues, tumor development is seen only in the lung at high penetrance.
# NK cells = assay: Whole blood NK cell degranulation/ADCC assay, MEC-1 cells opsonised with obinutuzumab; format: cell-based, human; conditions: 1 h pretreatment, obinutuzumab 1 μg/mL, 4 h
# Experimental: Degranulation in whole blood was performed as follows. […] Exponentially growing cells were used. […] A white blood cell (WBC) count of whole blood was performed. […] 170 μL aliquots of unmanipulated whole blood were incubated with 10 μL BTK inhibitors or X-VIVO 15 medium for one hour into a plate. […] The samples were placed in a 5% CO2 incubator for 4 hours at 37° C.
# After 4 hours, the samples were mixed gently and 50 μL aliquots were removed from each well and placed in fluorescence-activated cell sorting (FACS) test tubes. A 20 μL aliquot of anti-CD56-APC antibody and anti-CD107a-PE antibody was added. The samples were incubated for 20 minutes at room temperature in the dark. An aliquot of 2 mL of FACS lysing solution (BD Biosceinces) was added. The samples were again incubated for 5 minutes, and then centrifuged at 2000 rpm for 5 minutes. Supernatant was discarded and the cell pellet was resuspended in 500 μL of PBS. The samples were analyzed on the flow cytometer for CD107a^+ NK cells (CD56+).
# [1] = In vitro metabolism in hepatocytes with 14C-labeled Formula (II); format: in vitro ADME, mouse, rat, dog, rabbit, monkey, and human
# From the text: (§1) No unique human metabolite was identified. Preliminary evaluations of metabolism in the plasma, bile, and urine of rats, dogs, and monkeys indicated metabolic processes of oxidation, glutathione binding, and hydrolysis.
# ID8 ovarian cancer = assay: ID8 syngeneic orthotropic ovarian cancer murine model; format: in vivo, mice; conditions: 15 mg/kg/BID oral
# From the text: Human ovarian cancer models, including the ID8 syngeneic orthotropic ovarian cancer model and other animal models, are described in Fong and Kakar, J. Ovarian Res. 2009, 2, 12; Greenaway, et al., Gynecol. Oncol. 2008, 108, 385-94; Urzua et al., Tumour Biol. 2005, 26, 236-44; Janat-Amsbury, et al., Anticancer Res. 2006, 26, 3223-28; Janat-Amsbury, et al., Anticancer Res. 2006, 26, 2785-89. […] The results of the study are shown in FIG. 5, FIG. 6, FIG. 7, FIG. 8, FIG. 9, FIG. 10, FIG. 11, and FIG. 12.
# [2] = Cardiovascular function study in telemeterized beagle dogs; format: in vivo; conditions: single doses through 30 mg/kg
# From the text: Formula (II) was well tolerated in standard in vivo Good Laboratory Practices (GLP) studies of pharmacologic safety.
# [3] = tested on: orthotopic pancreatic cancer (KPC cell line); assay: Orthotopic pancreatic cancer model; format: in vivo, C57BL/6 mice; conditions: 15 mg/kg oral
# Experimental: Cell line derived from KrasGl2D;Trp53R172H;Pdx1-Cre (KPC) mice were orthotopically implanted into the head of the pancreas after 35 passages. Based on the mice background from where the cell lines were generated, 1×10^6 cells were injected in C57BL/6 mice. Throughout the experiment, animals were provided with food and water ad libitum and subjected to a 12-h dark/light cycle. Animal studies were performed in accordance with the U.S. Public Health Service “Guidelines for the Care and Use of Laboratory Animals” (IACUC). After euthanization, pancreatic tumors were dissected out, weighed and single cell suspensions were prepared for flow cytometry analysis.
# [4] = tested on: pancreatic cancer in KPC mice; assay: KPC pancreatic cancer model (spontaneous tumors); format: in vivo; conditions: 15 mg/kg BID oral
# Experimental: The KPC mouse model recapitulates many of the molecular, histopathologic, and clinical features of human disease (Westphalen and Olive, Cancer J. 2012, 18, 502-510). Combination therapy with gemcitabine was also evaluated in this model. Mice were enrolled after identification of spontaneously appearing tumors in the pancreas that were >100 mm^3 (as assessed by high-resolution ultrasonography).
# B cell receptor = assay: Whole blood B cell receptor signalling, CD69 on CD19+ B cells; format: cell-based; conditions: 2 h incubation, anti-human IgD 18 h
# Experimental: Blood from four healthy donors was incubated for 2 hours with the compounds shown over a concentration range, and then stimulated with anti-human IgD [10 μg/mL] for 18 hours. The mean fluorescent intensity (MFI) of CD69 (and CD86, data not shown) on gated CD19+ B cells was measured by flow cytometry. MFI values were normalized so that 100% represents CD69 level in stimulated cells without inhibitor, while 0% represents the unstimulated/no drug condition. […]
# [5] = tested on: GPVI platelet aggregation; assay: GPVI platelet aggregation (convulxin-induced); format: cell-based, human
# Experimental: GPVI platelet aggregation was measured for Formula (II) and Formula (X) (ibrutinib). Blood was obtained from untreated humans, and platelets were purified from […] by centrifugation. Cells were resuspended to a final concentration of […] in buffer containing 145 mmol/L NaCl, 10 mmol/L HEPES, 0.5 mmol/L Na2HPO4, 5 mmol/L KCl, 2 mmol/L MgCl2, 1 mmol/L CaCl2, and 0.1% glucose, at pH 7.4. Stock solutions of Convulxin (CVX) GPVI were prepared on the day of experimentation and added to platelet suspensions 5 minutes (37° C., 1200 rpm) before the induction of aggregation. Aggregation was assessed with a Chronolog Lumi-Aggregometer (model 540 VS; Chronolog, Havertown, Pa.) and permitted to proceed for 6 minutes after the addition of agonist. The results are reported as maximum percent change in light transmittance from baseline with platelet buffer used as a reference.
# In FIG. 23, the results of CVX-induced (250 ng/mL) human platelet aggregation results before and 15 minutes after administration of the BTK inhibitors to 6 healthy individuals are shown.
# [6] = Glutathione binding and depletion in vitro; format: in vitro ADME
# From the text: as §1
# [7] = tested on: human platelet-mediated thrombosis; conditions: mouse, in vivo
# Experimental: Injury to the vessel wall of arterioles ([…] diameter) was performed using a pulsed nitrogen dye laser (440 nm, Photonic Instruments) applied through a 20× water-immersion Olympus objective (LUMPlanF1, 0.5 numerical aperature (NA)) of a Zeiss Axiotech vario microscope. […] The extent of thrombus formation was assessed for 2 minutes after injury and the area (μm^2) of coverage determined (Image IQ, Andor Technology).
# The BTK inhibitor-treated human platelets were fluorescently labeled and infused continuously through a catheter inserted into the femoral artery.
structure (smiles),measurement,setting,value
"CC#CC(=O)N1CCC[C@H]1c1nc(-c2ccc(C(=O)Nc3ccccn3)cc2)c2c(N)nccn12 [Formula (II), (S)-4-(8-amino-3-(1-(but-2-ynoyl)pyrrolidin-2-yl)imidazo[1,5-a]pyrazin-1-yl)-N-(pyridin-2-yl)benzamide]",inhibition of in vitro EGFR phosphorylation,EGFR; 10 μM,no inhibition
same,inhibition at 10 µM,"EGFR; Homo sapiens, A-431, read-out: EGF-induced p-EGFR inhibition",7%
same,number of tumors,NSCLC (KrasLA2); 15 mg/kg,fewer overall tumors
same,tumor volumes versus vehicle,NSCLC (KrasLA2); 15 mg/kg,significant decrease in tumor volumes
same,immunosuppressive tumor associated TAMs,NSCLC (KrasLA2); FIG. 62,significant reduction
same,immunosuppressive tumor associated MDSCs,NSCLC (KrasLA2); FIG. 63,significant reduction
same,immunosuppressive tumor associated Tregs,NSCLC (KrasLA2); FIG. 64,significant reduction
same,reduction of obinutuzumab-stimulated NK cell degranulation,NK cells,minimal effect
same,metabolites in hepatocytes,[1],two mono-oxidized metabolites and a glutathione conjugate
same,ID8 ovarian cancer growth,ID8 ovarian cancer,impairs ID8 ovarian cancer growth
same,immunosuppressive B cells in tumor-bearing mice,ID8 ovarian cancer,significant reduction in immunosuppressive B cells
same,tumor associated Tregs and CD8+ T cells,ID8 ovarian cancer,significant reduction in immunosuppressive tumor associated Tregs and an increase in CD8^+ T cells
same,"body temperature, cardiovascular, ECG (including QT interval) parameters",[2],no meaningful changes
same,immunosuppressive tumor associated myeloid cells and Tregs,[3]; pancreatic tumor-bearing mice,reduce immunosuppressive tumor associated myeloid cells and Tregs
same,tumor volume,[3]; vs vehicle,statistically significant reductions in tumor volume
same,CD8+ cells in tumor tissues,[4],significant increase
same,"immunosuppressive TAMs, MDSCs and Tregs in tumor tissues",[4],significantly reduced
same,pancreatic cancer growth and animal survival,[4],substantially slowed pancreatic cancer growth and increased animal survival
same,survival at day 14,[4],6/6
same,survival at day 28,[4],5/6
same,average tumor volume at day 28,[4]; predose average 165 mm^3,272 mm^3
same,pEC50,B cell receptor,8.09
same,GPVI platelet aggregation,[5]; FIG. 22 and FIG. 23,does not
same,pIC50,"[5]; Homo sapiens, Platelet, FIG. 22",5.94
same,glutathione binding and depletion,[6],binds to glutathione but does not deplete glutathione
same,effect on thrombus formation,[7],does not interfere with thrombus formation
